PubChem BioAssay (NCI)
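Each compound was tested at five concentrations against cells in 96-well plates for 48 hours. TGI: concentration producing complete growth inhibition.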

Assays:
Test in all cases: DTP human tumour cell line panel, 48 h
786-0 renal = test system: 786-0 renal
A498 renal = test system: A498 renal
A549 NSCLC = test system: A549 NSCLC
ACHN renal = test system: ACHN renal
BT-549 breast = test system: BT-549 breast
CAKI-1 renal = test system: CAKI-1 renal
CCRF-CEM leukemia = test system: CCRF-CEM leukemia
COLO 205 colon = test system: COLO 205 colon
DU-145 prostate = test system: DU-145 prostate
EKVX NSCLC = test system: EKVX NSCLC
HCC-2998 colon = test system: HCC-2998 colon
HCT-116 colon = test system: HCT-116 colon
HCT-15 colon = test system: HCT-15 colon
HL-60(TB) leukemia = test system: HL-60(TB) leukemia
HOP-62 NSCLC = test system: HOP-62 NSCLC
HOP-92 NSCLC = test system: HOP-92 NSCLC
HT29 colon = test system: HT29 colon
IGROV1 ovarian = test system: IGROV1 ovarian
M14 melanoma = test system: M14 melanoma
MDA-MB-231 breast = test system: MDA-MB-231 breast
MDA-MB-435 = test system: MDA-MB-435
MOLT-4 leukemia = test system: MOLT-4 leukemia
NCI-H226 lung = test system: NCI-H226 lung
NCI-H23 lung = test system: NCI-H23 lung
NCI/ADR-RES ovarian = test system: NCI/ADR-RES ovarian
OVCAR-3 ovarian = test system: OVCAR-3 ovarian
OVCAR-4 ovarian = test system: OVCAR-4 ovarian
OVCAR-5 ovarian = test system: OVCAR-5 ovarian
OVCAR-8 ovarian = test system: OVCAR-8 ovarian
PC-3 prostate = test system: PC-3 prostate
RXF 393 renal = test system: RXF 393 renal
SF-268 CNS = test system: SF-268 CNS
SF-295 CNS = test system: SF-295 CNS
SF-539 CNS = test system: SF-539 CNS
SK-MEL-28 melanoma = test system: SK-MEL-28 melanoma
SK-MEL-5 melanoma = test system: SK-MEL-5 melanoma
SK-OV-3 ovarian = test system: SK-OV-3 ovarian
SN12C renal = test system: SN12C renal
SNB-19 CNS = test system: SNB-19 CNS
SNB-75 CNS = test system: SNB-75 CNS
SR leukemia = test system: SR leukemia
SW-620 colon = test system: SW-620 colon
TK-10 renal = test system: TK-10 renal
U251 CNS = test system: U251 CNS
UACC-257 melanoma = test system: UACC-257 melanoma
UO-31 renal = test system: UO-31 renal
KM12 colon = test system: KM12 colon
NCI-H460 lung = test system: NCI-H460 lung
SK-MEL-2 melanoma = test system: SK-MEL-2 melanoma
HS 578T breast = test system: HS 578T breast
K-562 leukemia = test system: K-562 leukemia
LOX IMVI melanoma = test system: LOX IMVI melanoma
MCF7 breast = test system: MCF7 breast
T-47D breast = test system: T-47D breast

CNCCCn1c2ccccc2c2c3c(c(-c4ccsc4)cc21)C(=O)NC3=O
TGI (786-0 renal): 1.48 µM | TGI (A498 renal): < 0.0254 µM | TGI (A549 NSCLC): 2.76 µM | TGI (ACHN renal): 1.23 µM | TGI (BT-549 breast): 13.7 µM | TGI (CAKI-1 renal): 2.44 µM | TGI (CCRF-CEM leukemia): 3.24 µM | TGI (COLO 205 colon): 2.71 µM | TGI (DU-145 prostate): 1.89 µM | TGI (EKVX NSCLC): 3.75 µM | TGI (HCC-2998 colon): 55.5 µM | TGI (HCT-116 colon): 2.79 µM | TGI (HCT-15 colon): 2.74 µM | TGI (HL-60(TB) leukemia): 4 µM | TGI (HOP-62 NSCLC): 2.24 µM | TGI (HOP-92 NSCLC): 2.22 µM | TGI (HT29 colon): 2.56 µM | TGI (IGROV1 ovarian): 2.4 µM | TGI (M14 melanoma): 1.7 µM | TGI (MDA-MB-231 breast): 3.06 µM | TGI (MDA-MB-435): 2.35 µM | TGI (MOLT-4 leukemia): > 100 µM | TGI (NCI-H226 lung): 23.6 µM | TGI (NCI-H23 lung): 1.74 µM | TGI (NCI/ADR-RES ovarian): 2.19 µM | TGI (OVCAR-3 ovarian): 2.6 µM | TGI (OVCAR-4 ovarian): 3.22 µM | TGI (OVCAR-5 ovarian): 3.16 µM | TGI (OVCAR-8 ovarian): 2.07 µM | TGI (PC-3 prostate): 1.78 µM | TGI (RXF 393 renal): 1.25 µM | TGI (SF-268 CNS): 4 µM | TGI (SF-295 CNS): 1.71 µM | TGI (SF-539 CNS): 0.182 µM | TGI (SK-MEL-28 melanoma): 3.36 µM | TGI (SK-MEL-5 melanoma): 2.16 µM | TGI (SK-OV-3 ovarian): 2.63 µM | TGI (SN12C renal): 2.7 µM | TGI (SNB-19 CNS): 3.06 µM | TGI (SNB-75 CNS): 3.43 µM | TGI (SR leukemia): 0.349 µM | TGI (SW-620 colon): 2.92 µM | TGI (TK-10 renal): 3.23 µM | TGI (U251 CNS): 3.71 µM | TGI (UACC-257 melanoma): 3.12 µM | TGI (UO-31 renal): 0.218 µM

C(=C\c1ccc(-c2cn3cc(/C=C/C=N/NC4=NCCN4)ccc3n2)cc1)/C=N/NC1=NCCN1
TGI (A549 NSCLC): 1.98 µM | TGI (ACHN renal): 3.01 µM | TGI (CAKI-1 renal): 5.61 µM | TGI (CCRF-CEM leukemia): 4.18 µM | TGI (DU-145 prostate): 5.44 µM | TGI (HCC-2998 colon): 2.6 µM | TGI (HCT-15 colon): > 100 µM | TGI (HOP-92 NSCLC): 2.51 µM | TGI (KM12 colon): 4.89 µM | TGI (MDA-MB-435): 3.54 µM | TGI (MOLT-4 leukemia): 5.22 µM | TGI (NCI-H226 lung): 3.27 µM | TGI (NCI-H460 lung): 1.92 µM | TGI (NCI/ADR-RES ovarian): > 44.9 µM | TGI (OVCAR-8 ovarian): 2.67 µM | TGI (PC-3 prostate): 3.97 µM | TGI (RXF 393 renal): 4.79 µM | TGI (SK-MEL-2 melanoma): 4.51 µM | TGI (SR leukemia): 3.54 µM | TGI (SW-620 colon): 0.77 µM | TGI (TK-10 renal): 65.4 µM | TGI (U251 CNS): 2.26 µM | TGI (UO-31 renal): 19.8 µM

CC(=O)c1c(O)ccc2c1c1c(n2C)C(=O)c2ccccc2C1=O
TGI (786-0 renal): > 100 µM | TGI (A498 renal): > 100 µM | TGI (A549 NSCLC): > 100 µM | TGI (BT-549 breast): > 100 µM | TGI (CAKI-1 renal): > 100 µM | TGI (CCRF-CEM leukemia): > 44.7 µM | TGI (COLO 205 colon): > 100 µM | TGI (DU-145 prostate): > 100 µM | TGI (EKVX NSCLC): > 48.5 µM | TGI (HCC-2998 colon): 1.36 µM | TGI (HCT-116 colon): > 100 µM | TGI (HCT-15 colon): > 100 µM | TGI (HL-60(TB) leukemia): > 100 µM | TGI (HOP-62 NSCLC): > 100 µM | TGI (HS 578T breast): > 100 µM | TGI (HT29 colon): > 100 µM | TGI (K-562 leukemia): > 100 µM | TGI (LOX IMVI melanoma): > 100 µM | TGI (MCF7 breast): > 21 µM | TGI (MDA-MB-231 breast): > 100 µM | TGI (MOLT-4 leukemia): > 100 µM | TGI (NCI-H460 lung): > 100 µM | TGI (OVCAR-3 ovarian): 6.47 µM | TGI (OVCAR-5 ovarian): > 100 µM | TGI (OVCAR-8 ovarian): > 100 µM | TGI (RXF 393 renal): > 100 µM | TGI (SF-268 CNS): 7.97 µM | TGI (SF-295 CNS): > 100 µM | TGI (SF-539 CNS): > 100 µM | TGI (SK-MEL-2 melanoma): > 100 µM | TGI (SK-MEL-5 melanoma): > 100 µM | TGI (SK-OV-3 ovarian): > 100 µM | TGI (SNB-19 CNS): > 100 µM | TGI (SNB-75 CNS): 5.97 µM | TGI (T-47D breast): 4.46 µM | TGI (TK-10 renal): > 28.1 µM | TGI (U251 CNS): > 100 µM | TGI (UACC-257 melanoma): > 100 µM
